Measurements taken from article PMC6138628, “Enhanced uptake of gH625 by blood brain barrier compared to liver in vivo: characterization of the mechanism by an in vitro model and implications for delivery” (Scientific Reports, 2018).
Residues, ends and D or L forms follow the SMILES beside them.

Legend:
[1] = ANTS/DPX leakage assay; conditions: 0.1 mM lipid, 5 mM Hepes, 100 mM NaCl, pH 7.4, 37 °C, data not shown
Procedure: The ANTS/DPX experiment was used to evaluate leakage of encapsulated dyes induced by the peptide. The peptide in 5 mM Hepes and 100 mM NaCl at pH 7.4 was added to the stirred vesicle suspension (0.1 mM lipid) containing ANTS and DPX at 37 °C. Details of this assay have been previously reported.

[2] = Tryptophan quenching by acrylamide; format: physicochemical; conditions: peptide 4 µM, peptide/lipid 1/200, acrylamide up to 0.2 M, λex 295 nm, λem 340 nm
Procedure: A solution containing 4 µM of gH625 in the absence or presence of LUVs at a peptide/lipid molar ratio of 1/200, was titrated with the water-soluble quencher acrylamide (4 M mother solution). The maximal concentration of acrylamide in the samples is 0.2 M. Fluorescence was measured with λex 295 nm and λem 340 nm[43]. The data were analysed with the Stern-Volmer equation[43], F0/F = 1 + Ksv [Q], where F0 and F represent the fluorescence intensities in the absence and the presence of the quencher (Q), respectively. The Ksv is the Stern-Volmer quenching constant, and is correlated to the accessibility of the tryptophan residue to acrylamide. […] Ksv is thus determined by the amount of non-lipid-associated free peptide as well as the peptide fraction located on the surface of the bilayer.
The observed changes in the tryptophan emission upon binding to lipid vesicles indicate gH625 insertion into the hydrophobic region of the bilayers. We determined the accessibility of the tryptophan residues of membrane bound peptides towards acrylamide, a neutral, water-soluble quencher, which is unable to penetrate into the hydrophobic core of the lipid bilayer. In fact, tryptophan residues more deeply buried inside the membrane are less strongly quenched.

[3] = Circular dichroism spectroscopy; format: physicochemical; conditions: CD, peptide 8 µM, P/L 0.08; for Helix content: [θ]222, according to Chakrabartty et al., lipid 100 µM, 5 mM phosphate buffer, room temperature
Procedure: The samples were vortexed and lyophilized overnight.
(§1) CD spectra were recorded at room temperature on a Jasco J-715 spectropolarimeter in a 0.1 cm quartz cell. The spectra are an average of 3 consecutive scans from 260 to 190 nm, recorded with a band width of 3 nm, a time constant of 16 s, and a scan rate of 10 nm/min. Spectra were recorded and corrected for the blank. Mean residue ellipticities (MRE) were calculated as MRE = Obsd/lcn (Obsd is the ellipticity measured in millidegrees, l is the path length of the cell in cm, c is the peptide concentration in mol/l, and n is the number of amino acid residues in the peptide). A solution of 8 µM of peptide with SUVs, was prepared as previously described. […] The percentage of helix was calculated from measurements of their mean residue ellipticity at 222 nm[44]. We used [ϑ]222 values of 0 and −40.000(1–2.5/n) deg cm^2 dmol^−1 per amino acid residue for 0% and 100% helicity; n is the number of amino acid residues. The ratio of the ellipticities at 222 and 208 nm were used to discriminate between monomeric and oligomeric states of helices. The experiment was performed before and after centrifugation to remove eventual precipitated peptides from solution.

[4] = Tryptophan fluorescence, binding isotherm and partition coefficient; format: physicochemical; conditions: peptide 4 µM, λex 295 nm
Procedure: Emission spectra of the tryptophan contained in the peptide (4 µM) in the absence or presence of target vesicles were recorded between 300 and 400 nm with λex 295 nm in order to determine the presence of the peptide inside the membrane. To establish the strength of peptide-lipid interaction, LUVs were added to the peptide solution (4 µM) and the fluorescence intensity was recorded as a function of the lipid/peptide molar ratio (L/P), in three to four separate experiments. The results were corrected for the dilution factor. We used an L/P ratio of 200:1. […] F∞ was obtained by extrapolation of a double reciprocal plot of the total peptide fluorescence vs the total lipid concentration in the outer leaflet. The fraction of membrane-bound peptide, fb, was determined by fb = (F − F0)/(F∞ − F0), where F represents the fluorescence of peptide after the addition of the vesicles and F0 represents the fluorescence of the unbound peptide. fb allowed us to calculate the equilibrium concentration of the free peptide in the solution, Cf, and the extent of peptide binding Xb. […]
The presence of a tryptophan residue in the middle of the sequence of gH625, allowed the evaluation of the degree of peptide penetration into liposomes of different composition. In particular, we compared the fluorescence emission spectra in vesicles mimicking the BBB and the liver with that in buffer. […]

[5] = Circular dichroism spectroscopy in aqueous solution; format: physicochemical; conditions: room temperature
Procedure: as §1

[6] = design: method as in PMID 25792823; conditions: after 3.5 h of incubation in serum; cited from earlier work

CC[C@H](C)[C@H](NC(=O)[C@H](CC(C)C)NC(=O)[C@H](C)NC(=O)[C@H](CC(N)=O)NC(=O)[C@H](Cc1ccc(O)cc1)NC(=O)[C@H](Cc1c[nH]cn1)NC(=O)[C@H](C)NC(=O)[C@H](Cc1c[nH]c2ccccc12)NC(=O)[C@H](CCCNC(=N)N)NC(=O)[C@@H](NC(=O)[C@H](CC(C)C)NC(=O)[C@@H](NC(=O)[C@H](CO)NC(=O)[C@H](C)NC(=O)[C@H](CC(C)C)NC(=O)CNC(=O)[C@@H](N)Cc1c[nH]cn1)[C@@H](C)O)[C@@H](C)O)C(=O)N[C@@H](CCCNC(=N)N)C(=O)N[C@@H](C)C(=O)N[C@@H](Cc1ccccc1)C(N)=O [gH625] (H-HGLASTLTRWAHYNALIRAF-NH2)
Leakage of encapsulated dyes (ANTS/DPX) ([1]; BBB mimicking LUVs): did not present any leakage | Leakage of encapsulated dyes (ANTS/DPX) ([1]; liver mimicking LUVs): did not present any leakage | Stern-Volmer quenching constant (Ksv) ([2]; BBB mimicking LUVs): 2.05 ± 0.08 M⁻¹ | Stern-Volmer quenching constant (Ksv) ([2]; liver mimicking LUVs): 3.04 ± 0.06 M⁻¹ | Helix content ([3]; BBB mimicking SUVs): 58% | Helix content ([3]; liver mimicking SUVs): 40% | Ratio θ222/θ208 (monomeric < 0.8, oligomeric > 1.0) ([3]; BBB mimicking SUVs): approximately 0.68 | Ratio θ222/θ208 (monomeric < 0.8, oligomeric > 1.0) ([3]; liver mimicking SUVs): ~0.45 | Tryptophan fluorescence emission (intensity increase, blue shift): penetration into bilayer ([4]; BBB mimicking LUVs vs buffer): capable of penetrating both lipid bilayers | Tryptophan fluorescence emission (intensity increase, blue shift): penetration into bilayer ([4]; liver mimicking LUVs vs buffer): capable of penetrating both lipid bilayers | Secondary structure by CD [5]: mainly random coil structure | Serum stability, intact peptide [6]: significant amount of intact peptide
